The target of one assay is T1, GSPT1 (Homo sapiens, UniProt P15170+Q96SW2).
T1 construct: host or cells: HEK293 LgBiT cell line
Nature of the assay: GSPT1 HiBit degradation assay. Format: cell-based. The note with it: HEK293 LgBiT cells expressing GSPT1_HiBiT, luminescence after 6 hours. The gist of the method: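 HEK293 cells stably expressing LgBiT and GSPT1-HiBiT, seeded 18-24 h before dosing, were treated with titrated compound plus endurazine (0.5× final) at 37 °C. Luminescence loss after 6 h reflects GSPT1 degradation; DC50 is the concentration giving 50% degradation.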
(The HiBiT peptide binds its large partner to form an active luciferase.)

The test system of a further assay is HeLa KRas G12C cells. Nature of the assay: Cellular growth inhibition assay (CTG), HeLa KRas G12C cells. Format: cell-based. The note with it: Homo sapiens, CellTiter-Glo 2.0, day-5. The method, then:
Cells were seeded in Poly-D-lysine-treated 384-well white plates, with 25 μL cell suspension at 250 cells/well for continuous treatments, and 1000 cells/well for washout treatments. Plates were spun at 300×g for 3 minutes, and cells were cultured at 37° C. with 5% CO2 in a humidified tissue culture incubator.
After 24 hours, the test compounds were diluted with cell culture medium in 96 deep well plates. DMSO was used as a negative control. A 25 μL aliquot of compound-containing medium was added in each well, at a final top concentration of 10 μM or 30 μM test compound, with 3-fold dilutions. For washout assays, after 4 hours, cell medium with compound was removed, and the cells were washed with 75p L fresh medium. Plates were then spun at 300×g for 3 minutes and replaced with 50 μL fresh medium in each well. Plates were then spun at 300×g for 3 minutes again and cultured at 37° C. with 5% CO2.
At day-0 and day-5 of compound treatments, cell viability was quantified with CellTiter-Glo 2.0 (Promega). After equilibrating cell plates at room temperature for 30 minutes, 25 μL CellTiter-Glo 2.0 reagent was dispensed into each well (on top of 50 μL of cell culture). Plates were mixed on a shaker for 2 minutes at 500 rpm, followed by a 10-minute incubation at room temperature. Luminescence readings were measured with an EnVision Plate Reader. Data was normalized to DMSO treated day-0 cell wells. A four-parameter non-linear regression curve fit was applied to dose-response data in Prism to determine the half maximal growth inhibitory concentration (GI50) of each compound.
(In general: ATP-based viability assays read luminescence as a measure of living cells.)

A word on the DC50: it is the concentration at which degradation of the target reaches its halfway point. A high value points to degradation only at high concentration. Usually GI50 stands for the concentration giving 50% growth inhibition. Higher therefore signals lower sensitivity of the cells.

SMILES strings stand for the structures.

T1 sequence (P15170 whole entry): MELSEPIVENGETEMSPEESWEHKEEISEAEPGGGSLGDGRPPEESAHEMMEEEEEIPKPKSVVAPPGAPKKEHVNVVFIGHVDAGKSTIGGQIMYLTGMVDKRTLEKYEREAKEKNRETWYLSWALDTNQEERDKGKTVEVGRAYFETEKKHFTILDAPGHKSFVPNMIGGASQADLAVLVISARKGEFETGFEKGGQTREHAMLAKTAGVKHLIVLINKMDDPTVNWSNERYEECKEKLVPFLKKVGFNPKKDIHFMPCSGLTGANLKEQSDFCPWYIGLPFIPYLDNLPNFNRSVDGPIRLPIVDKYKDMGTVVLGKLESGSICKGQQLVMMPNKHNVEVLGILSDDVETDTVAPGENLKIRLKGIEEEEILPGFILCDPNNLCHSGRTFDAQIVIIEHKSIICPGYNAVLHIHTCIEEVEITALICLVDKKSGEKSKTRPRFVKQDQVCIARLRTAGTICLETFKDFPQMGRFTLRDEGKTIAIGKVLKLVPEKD
T1 sequence (Q96SW2 whole entry): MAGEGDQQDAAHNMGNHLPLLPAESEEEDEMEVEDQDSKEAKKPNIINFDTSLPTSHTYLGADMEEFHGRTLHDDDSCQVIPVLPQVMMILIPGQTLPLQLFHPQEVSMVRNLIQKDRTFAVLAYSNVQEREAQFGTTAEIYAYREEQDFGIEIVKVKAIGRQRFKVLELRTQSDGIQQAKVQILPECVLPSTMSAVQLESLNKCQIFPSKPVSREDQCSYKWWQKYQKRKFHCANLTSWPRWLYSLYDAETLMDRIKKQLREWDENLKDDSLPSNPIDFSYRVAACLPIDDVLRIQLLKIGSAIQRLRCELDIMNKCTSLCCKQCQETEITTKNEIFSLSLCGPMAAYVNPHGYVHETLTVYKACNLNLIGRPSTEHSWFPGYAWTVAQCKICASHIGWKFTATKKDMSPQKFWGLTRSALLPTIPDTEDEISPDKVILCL
T1 sequence (Q16531 whole entry partner): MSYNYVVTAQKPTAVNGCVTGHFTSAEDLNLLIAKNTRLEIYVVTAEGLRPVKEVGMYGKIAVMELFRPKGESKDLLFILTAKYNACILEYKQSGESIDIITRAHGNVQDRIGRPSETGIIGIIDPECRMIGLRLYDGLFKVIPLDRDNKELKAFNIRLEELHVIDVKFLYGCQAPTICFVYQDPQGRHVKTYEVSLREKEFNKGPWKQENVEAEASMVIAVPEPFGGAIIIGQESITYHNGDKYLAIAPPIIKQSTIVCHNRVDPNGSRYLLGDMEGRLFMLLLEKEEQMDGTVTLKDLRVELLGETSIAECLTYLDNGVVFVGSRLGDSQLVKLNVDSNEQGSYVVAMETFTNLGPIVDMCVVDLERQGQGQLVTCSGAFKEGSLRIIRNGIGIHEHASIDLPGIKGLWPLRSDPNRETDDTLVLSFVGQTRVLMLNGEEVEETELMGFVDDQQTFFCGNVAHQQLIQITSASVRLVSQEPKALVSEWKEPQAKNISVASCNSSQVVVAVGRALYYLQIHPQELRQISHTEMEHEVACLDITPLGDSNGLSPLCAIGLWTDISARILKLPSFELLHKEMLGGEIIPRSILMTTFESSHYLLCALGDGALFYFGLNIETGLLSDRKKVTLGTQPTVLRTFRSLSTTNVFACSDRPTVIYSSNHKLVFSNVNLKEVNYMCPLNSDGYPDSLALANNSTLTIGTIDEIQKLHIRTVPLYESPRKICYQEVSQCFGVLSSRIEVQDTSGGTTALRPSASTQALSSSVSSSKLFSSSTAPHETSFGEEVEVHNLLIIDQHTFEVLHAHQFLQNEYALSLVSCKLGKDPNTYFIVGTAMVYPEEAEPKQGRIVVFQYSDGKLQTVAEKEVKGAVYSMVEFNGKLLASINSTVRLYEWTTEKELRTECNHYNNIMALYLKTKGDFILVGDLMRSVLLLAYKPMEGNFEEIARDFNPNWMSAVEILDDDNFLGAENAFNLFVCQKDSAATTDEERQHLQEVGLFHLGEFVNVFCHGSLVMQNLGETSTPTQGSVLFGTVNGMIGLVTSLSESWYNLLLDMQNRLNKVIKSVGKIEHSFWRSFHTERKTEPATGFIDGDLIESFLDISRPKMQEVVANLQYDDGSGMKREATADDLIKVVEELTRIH

With `C=C(F)C(=O)N1CCN(c2nc(OC[C@@H]3CCCN3CCCOCCOCCOCCOCCOCCCCCc3cccc(NC(=O)NCc4ccc5c(c4)CN(C4CCC(=O)NC4=O)C5=O)n3)nc3c2CCN(c2cccc4cccc(Cl)c24)C3)C[C@@H]1CC#N` (stereo partly shown) [Compound I-152], the DC50 at GSPT1 (Table 3A) was more than 10 µM. In the assay on HeLa KRas G12C cells, this molecule yielded a GI50 of 3 to 10 µM.
With `C=CC(=O)N1CCN(c2nc(NCCCCCCCCc3cc(Cl)cc(NC(=O)NCc4ccc5c(c4)CN(C4CCC(=O)NC4=O)C5=O)c3)nc3c(F)c(-c4cc(O)cc5ccccc45)c(Cl)cc23)CC1` (stereo not shown) [Compound I-5, 1-[3-chloro-5-[8-[[6-chloro-8-fluoro-7-(3-hydroxy-1-naphthyl)-4-(4-prop-2-enoylpiperazin-1-yl)quinazolin-2-yl]amino]octyl]phenyl]-3-[[2-(2,6-dioxo-3-piperidyl)-1-oxo-isoindolin-5-yl]methyl]urea], the DC50 at GSPT1 (Table 3) is less than 0.25 µM. In the assay with HeLa KRas G12C cells, the GI50 was more than 10 µM.
Consider `C=C(F)C(=O)N1CCN(c2nc(OC[C@@H]3CCCN3CCCOCCOCCOCCOCCOCCOCCOCCOCCOCCOCCOCCCCCc3cccc(NC(=O)NCc4ccc5c(c4)CN(C4CCC(=O)NC4=O)C5=O)n3)nc3c2CCN(c2cccc4cccc(Cl)c24)C3)C[C@@H]1CC#N` (stereo partly shown) [Compound I-148], for which the DC50 at GSPT1 (Table 3A) fell in the range of 0.25 to 5 µM. This molecule also came in with a GI50 in the assay on HeLa KRas G12C cells of 3 to 10 µM.
In the case of `C=C(F)C(=O)N1CCN(c2nc(OC[C@@H]3CCCN3CCOCCOCCOCCOCCOCCOCCOCCOCCOCCOCCOCCOCCCCCCCCCCCCCCc3cc(Cl)cc(NC(=O)NCc4ccc5c(c4)CN(C4CCC(=O)NC4=O)C5=O)c3)nc3c2CCN(c2cccc4cccc(Cl)c24)C3)C[C@@H]1CC#N` (stereo partly shown) [Compound I-53], the DC50 at GSPT1 (Table 3) is less than 0.25 µM. This molecule also had a GI50 in the assay on HeLa KRas G12C cells of less than 1 µM.
In the case of `C=C(F)C(=O)N1CCN(c2nc(OC[C@@H]3CCCN3CCOCCOCCOCCOCCOCCOCCc3cc(Cl)cc(NC(=O)NCc4ccc5c(c4)CN(C4CCC(=O)NC4=O)C5=O)c3)nc3c2CCN(c2cccc4cccc(Cl)c24)C3)C[C@@H]1CC#N` (stereo partly drawn) [Compound I-2, 1-(3-chloro-5-(20-((S)-2-(((7-(8-chloronaphthalen-1-yl)-4-((S)-3-(cyanomethyl)-4-(2-fluoroacryloyl)piperazin-1-yl)-5,6,7,8-tetrahydropyrido[3,4-d]pyrimidin-2-yl)oxy)methyl)pyrrolidin-1-yl)-3,6,9,12,15,18-hexaoxaicosyl)phenyl)-3-((2-(2,6-dioxopiperidin-3-yl)-1-oxoisoindolin-5-yl)methyl)urea], the DC50 at GSPT1 (Table 3) fell in the range of 5 to 10 µM. In addition, in the assay on HeLa KRas G12C cells, the GI50 was more than 10 µM.
For `C=C(F)C(=O)N1CCN(c2nc(OC[C@@H]3CCCN3CCOCCOCCOCCOCCOCCCCCc3cc(Cl)cc(NC(=O)NCc4ccc5c(c4)CN(C4CCC(=O)NC4=O)C5=O)c3)nc3c2CCN(c2cccc4cccc(Cl)c24)C3)C[C@@H]1CC#N` (stereo partly shown) [Compound I-54], in that order: 0.25 to 5 µM and less than 1 µM.
In the case of `C=C(F)C(=O)N1CCN(c2nc(OC[C@@H]3CCCN3CCOCCOCCCCCCCCCCCCCCc3cc(Cl)cc(NC(=O)NCc4ccc5c(c4)CN(C4CCC(=O)NC4=O)C5=O)c3)nc3c2CCN(c2cccc4cccc(Cl)c24)C3)C[C@@H]1CC#N` (stereo partly shown) [Compound I-48], the DC50 on GSPT1 (Table 3) was 0.25 to 5 µM. Also, the GI50 with HeLa KRas G12C cells fell in the range of 3 to 10 µM.
At GSPT1 (Table 3A), `C=C(F)C(=O)N1CCN(c2nc(OC[C@@H]3CCCN3CCCOCCOCCOCCOCCOCCOCCOCCOCCOCCOCCOCCCCCc3ccc(Cl)cc3NC(=O)NCc3ccc4c(c3)CN(C3CCC(=O)NC3=O)C4=O)nc3c2CCN(c2cccc4cccc(Cl)c24)C3)C[C@@H]1CC#N` (stereo partly shown) [Compound I-138] displayed a DC50 of 0.25 to 5 µM. This molecule came in with a GI50 in the assay on HeLa KRas G12C cells of 3 to 10 µM.
On GSPT1 (Table 3), `C=C(F)C(=O)N1CCN(c2nc(OC[C@@H]3CCCN3CCOCCOCCOCCOCCOCCOCCOCCCCCc3cc(Cl)cc(NC(=O)NCc4ccc5c(c4)CN(C4CCC(=O)NC4=O)C5=O)c3)nc3c2CCN(c2cccc4cccc(Cl)c24)C3)C[C@@H]1CC#N` (stereo partly shown) [Compound I-43] came in with a DC50 of 0.25 to 5 µM. In addition, the 50% growth inhibitory concentration (GI50) in the assay with HeLa KRas G12C cells is 1 to 3 µM.
For `C=C(F)C(=O)N1CCN(c2nc(OC[C@@H]3CCCN3CCCCCCCCc3cccc4c3CN(C3CCC(=O)NC3=O)C4=O)nc3c2CCN(c2cccc4cccc(Cl)c24)C3)C[C@@H]1CC#N` (stereo partly drawn) [Compound I-4, 2-[(2S)-4-[7-(8-chloro-1-naphthyl)-2-[[(2S)-1-[8-[2-(2,6-dioxo-3-piperidyl)-1-oxo-isoindolin-4-yl]octyl]pyrrolidin-2-yl]methoxy]-6,8-dihydro-5H-pyrido[3,4-d]pyrimidin-4-yl]-1-(2-fluoroprop-2-enoyl)piperazin-2-yl]acetonitrile], in that order: more than 10 µM and 3 to 10 µM.
The matching figures for `C=CC(=O)N1CCN(c2nc(NCCOCCOCCOCCOCCOCCOCCOCCOCCOc3cc(Cl)cc(NC(=O)NCc4ccc5c(c4)CN(C4CCC(=O)NC4=O)C5=O)c3)nc3c(F)c(-c4cc(O)cc5ccccc45)c(Cl)cc23)CC1` (stereo not shown) [Compound I-13, 1-[3-chloro-5-[2-[2-[2-[2-[2-[2-[2-[2-[2-[[6-chloro-8-fluoro-7-(3-hydroxy-1-naphthyl)-4-(4-prop-2-enoylpiperazin-1-yl)quinazolin-2-yl]amino]ethoxy]ethoxy]ethoxy]ethoxy]ethoxy]ethoxy]ethoxy]ethoxy]ethoxy]phenyl]-3-[[2-(2,6-dioxo-3-piperidyl)-1-oxo-isoindolin-5-yl]methyl]urea]: more than 10 µM and more than 10 µM.
The matching figures for `C=CC(=O)N1CCN(c2nc(NCCOCCOCCOCCOCCOCCOCCOCCOCCOCCOCCOc3cc(Cl)cc(NC(=O)NCc4ccc5c(c4)CN(C4CCC(=O)NC4=O)C5=O)c3)nc3c(F)c(-c4cc(O)cc5ccccc45)c(Cl)cc23)CC1` (stereo not shown) [Compound I-14, 1-[3-chloro-5-[2-[2-[2-[2-[2-[2-[2-[2-[2-[2-[2-[[6-chloro-8-fluoro-7-(3-hydroxy-1-naphthyl)-4-(4-prop-2-enoylpiperazin-1-yl)quinazolin-2-yl]amino]ethoxy]ethoxy]ethoxy]ethoxy]ethoxy]ethoxy]ethoxy]ethoxy]ethoxy]ethoxy]ethoxy]phenyl]-3-[[2-(2,6-dioxo-3-piperidyl)-1-oxo-isoindolin-5-yl]methyl]urea]: more than 10 µM and more than 10 µM.
In the case of `C=CC(=O)N1CCN(c2nc(NCCOCCOCCOCCOCCOCCOCCOCCOCCOCCOCCc3cc(Cl)cc(NC(=O)NCc4ccc5c(c4)CN(C4CCC(=O)NC4=O)C5=O)c3)nc3c(F)c(-c4cc(O)cc5ccccc45)c(Cl)cc23)CC1` (stereo not shown) [Compound I-16, 1-[3-chloro-5-[2-[2-[2-[2-[2-[2-[2-[2-[2-[2-[2-[[6-chloro-8-fluoro-7-(3-hydroxy-1-naphthyl)-4-(4-prop-2-enoylpiperazin-1-yl)quinazolin-2-yl]amino]ethoxy]ethoxy]ethoxy]ethoxy]ethoxy]ethoxy]ethoxy]ethoxy]ethoxy]ethoxy]ethyl]phenyl]-3-[[2-(2,6-dioxo-3-piperidyl)-1-oxo-isoindolin-5-yl]methyl]urea], at GSPT1 (Table 3), the DC50 is more than 10 µM. In the assay with HeLa KRas G12C cells, this molecule came in with a GI50 of more than 10 µM.
Regarding `C=C(F)C(=O)N1CCN(c2nc(OC[C@@H]3CCCN3CCOCCOCCOCCOCCOCCOCCOCCOCCOCCOCCOc3cc(Cl)cc(NC(=O)NCc4ccc5c(c4)CN(C4CCC(=O)NC4=O)C5=O)c3)nc3c2CCN(c2cccc4cccc(Cl)c24)C3)C[C@@H]1CC#N` (stereo partly drawn) [Compound I-10, 1-[3-chloro-5-[2-[2-[2-[2-[2-[2-[2-[2-[2-[2-[2-[(2S)-2-[[7-(8-chloro-1-naphthyl)-4-[(3S)-3-(cyanomethyl)-4-(2-fluoroprop-2-enoyl)piperazin-1-yl]-6,8-dihydro-5H-pyrido[3,4-d]pyrimidin-2-yl]oxymethyl]pyrrolidin-1-yl]ethoxy]ethoxy]ethoxy]ethoxy]ethoxy]ethoxy]ethoxy]ethoxy]ethoxy]ethoxy]ethoxy]phenyl]-3-[[2-(2,6-dioxo-3-piperidyl)-1-oxo-isoindolin-5-yl]methyl]urea], on GSPT1 (Table 3), the DC50 was 5 to 10 µM. In the assay with HeLa KRas G12C cells, this molecule had a GI50 of 3 to 10 µM.
`C=C(F)C(=O)N1CCN(c2nc(OC[C@@H]3CCCN3CCCOCCOCCOCCOCCOCCOCCOCCCCCc3ccc(Cl)cc3NC(=O)NCc3ccc4c(c3)CN(C3CCC(=O)NC3=O)C4=O)nc3c2CCN(c2cccc4cccc(Cl)c24)C3)C[C@@H]1CC#N` (stereo partly shown) [Compound I-137] returned a DC50 on GSPT1 (Table 3A) of 0.25 to 5 µM. Also, the GI50 with HeLa KRas G12C cells lay in the range of 3 to 10 µM.
In turn, `C=C(F)C(=O)N1CCN(c2nc(OC[C@@H]3CCCN3CCOCCOCCOCCOCCCCCCCCc3cc(Cl)cc(NC(=O)NCc4ccc5c(c4)CN(C4CCC(=O)NC4=O)C5=O)c3)nc3c2CCN(c2cccc4cccc(Cl)c24)C3)C[C@@H]1CC#N` (stereo partly shown) [Compound I-40] gave a DC50 at GSPT1 (Table 3) of less than 0.25 µM. For the same molecule, the GI50 in the assay with HeLa KRas G12C cells is less than 1 µM.
With `C=C(F)C(=O)N1CCN(c2nc(OC[C@@H]3CCCN3CCOCCOCCOCCOCCOCCOCCOCCOCCCCCCCCc3cc(Cl)cc(NC(=O)NCc4ccc5c(c4)CN(C4CCC(=O)NC4=O)C5=O)c3)nc3c2CCN(c2cccc4cccc(Cl)c24)C3)C[C@@H]1CC#N` (stereo partly shown) [Compound I-38], the DC50 at GSPT1 (Table 3) is less than 0.25 µM. The same molecule had a GI50 in the assay with HeLa KRas G12C cells of less than 1 µM.

Source of the values: patent publication US20240238424A1, “HETEROBIFUNCTIONAL COMPOUNDS AND METHODS OF TREATING DISEASE” (Halda Therapeutics OpCo, Inc., priority 2021, published 2024).
